From patent US10421756B2, “Heterobicyclic N-aminophenyl-amides as inhibitors of histone deacetylase” (Rodin Therapeutics, Inc., priority 2015, dated 2019)

How the values were obtained:
Type in all cases: binding
[1] = target: T1, HDAC2 (Homo sapiens (Human), UniProt Q92769); assay: Reporter displacement assay (HDAC2); conditions: reporter probe displacement, Cheng Prusoff
Experimental: (§1) HDAC2 containing a C-terminal HIS-Tag (Proteros) and fluorescently-labeled anti-HIS-antibody are diluted in one vial in assay buffer 50 mM Tris, pH 8.0, 1 mM DTT, 150 mM NaCl, and 0.01% Tween20. Components are pre-incubated for 30 min, then a small volume of reporter probe (Proteros) is added from a highly concentrated stock and incubation is continued for another 30 min. Final concentrations after adding the reporter probe amount to 20 nM HDAC2, 4 nM antibody, and 180 nM probe.
Ten μl/well of pre-formed complex are transferred into 384 well assay plates (Corning). Compounds to be profiled are serially diluted from […] in DMSO and 60 nl are added to assay plates by pintool transfer (CybiWell, Cybio). Fluorescence intensity signal is read after 4 h in a Pherastar FS (BMG Labtech) at 337/665 nm.
(§2) For Kd determination, percent probe displacement values are calculated for each compound concentration and plotted against the compound concentration. IC50-like values (corresponding to 50% probe displacement) are calculated using standard fitting algorithms. Since the reporter probe is used at a concentration reflecting its own Kd value, compound Kd values can be calculated according to the Cheng Prusoff equation.
In the table, “A” indicates a Kd value of less than 0.1 μM; “B” a Kd value of between 0.1 μM and 0.5 μM; “C” a Kd value of greater than 0.5 μM and less than or equal to 5.0 μM; and “D” a Kd value of greater than 5.0 μM.

[2] = target: HDAC1 (Homo sapiens (Human), UniProt Q13547); assay: Reporter displacement assay (HDAC1); conditions: for Kd: reporter probe displacement, Cheng Prusoff
Chain of HDAC1 (Q13547 whole entry): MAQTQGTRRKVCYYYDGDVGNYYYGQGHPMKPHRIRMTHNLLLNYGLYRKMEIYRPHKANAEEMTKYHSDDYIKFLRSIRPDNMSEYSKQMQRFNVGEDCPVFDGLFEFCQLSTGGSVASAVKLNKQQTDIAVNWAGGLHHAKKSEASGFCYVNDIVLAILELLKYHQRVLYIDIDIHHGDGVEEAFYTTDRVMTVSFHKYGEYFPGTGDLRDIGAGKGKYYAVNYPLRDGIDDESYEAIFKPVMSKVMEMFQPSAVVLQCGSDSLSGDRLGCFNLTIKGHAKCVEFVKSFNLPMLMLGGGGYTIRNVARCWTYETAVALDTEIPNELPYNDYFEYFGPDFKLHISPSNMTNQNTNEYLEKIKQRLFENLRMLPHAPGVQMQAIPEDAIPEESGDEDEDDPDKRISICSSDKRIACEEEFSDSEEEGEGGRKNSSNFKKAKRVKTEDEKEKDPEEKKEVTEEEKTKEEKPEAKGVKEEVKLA
Experimental: [The procedure below names another target; the source lists this target under the same test.] as §1, with “min.” for “min. Final concentrations after adding the reporter probe amount to 20 nM HDAC2, 4 nM antibody, and 180 nM probe.”
Ten μl/well of pre-formed complex are transferred into 384 well assay plates (Corning). Compounds to be profiled are serially diluted from […] in DMSO and 60 nl are added to assay plates by pintool transfer (CybiWell, Cybio).
as §2, with “IC50-like values (corresponding to 50% probe displacement) are calculated using standard fitting algorithms.” left out

[3] = target: T1, HDAC2; assay: Reporter displacement assay (HDAC2)

T1 sequence (Q92769 whole entry): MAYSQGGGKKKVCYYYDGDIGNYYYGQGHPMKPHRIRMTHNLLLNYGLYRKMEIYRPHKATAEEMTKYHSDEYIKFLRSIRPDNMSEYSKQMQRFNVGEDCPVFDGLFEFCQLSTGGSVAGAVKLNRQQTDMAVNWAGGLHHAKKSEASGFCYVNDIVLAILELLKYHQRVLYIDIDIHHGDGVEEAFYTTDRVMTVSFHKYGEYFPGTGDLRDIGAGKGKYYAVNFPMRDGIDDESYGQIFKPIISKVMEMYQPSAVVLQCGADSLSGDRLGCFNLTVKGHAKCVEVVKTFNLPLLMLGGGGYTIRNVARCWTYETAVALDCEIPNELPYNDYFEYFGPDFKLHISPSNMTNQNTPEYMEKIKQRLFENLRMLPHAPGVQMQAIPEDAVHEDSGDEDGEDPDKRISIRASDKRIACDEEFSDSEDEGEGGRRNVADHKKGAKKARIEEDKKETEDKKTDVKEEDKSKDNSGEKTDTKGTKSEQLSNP

SMILES: Cn1cc(-c2ccc(N)c(NC(=O)N3Cc4ccncc4C3)c2)cn1 [Compound 145]
- Kd [1]: 100 to 500 nM
- residence time [2]: 876 min
- Kd [2]: 100 to 500 nM
- residence time [3]: 1250 min

SMILES: Nc1ccc(-c2ccccn2)cc1NC(=O)N1Cc2ccncc2C1 [Compound 146]
- Kd [1]: 500 to 5000 nM
- residence time [2]: 540 min
- Kd [2]: 100 to 500 nM
- residence time [3]: 1280 min

SMILES: Nc1ccc(-c2ccc(F)cc2)cc1NC(=O)c1nc2c(s1)CNCC2 [Compound 147]
- Kd [1]: 100 to 500 nM
- residence time [2]: 1340 min
- Kd [2]: < 100 nM
- residence time [3]: 1620 min

SMILES: Nc1ccc(-c2ccc(F)cc2)cc1NC(=O)N1CC2(CCOCC2)C1 [Compound 148]
- Kd [1]: 500 to 5000 nM
- residence time [2]: 233 min
- Kd [2]: 500 to 5000 nM
- residence time [3]: 809 min

SMILES: N#Cc1ccc(-c2ccc(N)c(NC(=O)N3Cc4ccncc4C3)c2)cc1 [Compound 149]
- Kd [1]: 100 to 500 nM
- residence time [2]: 124 min
- Kd [2]: 100 to 500 nM
- residence time [3]: 573 min

SMILES: Nc1ccc(-c2ccc(F)cc2)cc1NC(=O)c1cn2c(n1)CCCC2 [Compound 150]
- Kd [1]: 500 to 5000 nM
- residence time [2]: 1080 min
- Kd [2]: 100 to 500 nM
- residence time [3]: 1010 min

SMILES: Nc1ccc(-c2ccoc2)cc1NC(=O)N1Cc2ccncc2C1 [Compound 151]
- Kd [1]: < 100 nM
- residence time [2]: 1130 min
- Kd [2]: < 100 nM
- residence time [3]: 6280 min

SMILES: CNC(=O)N1CCc2nc(C(=O)Nc3cc(-c4ccc(F)cc4)ccc3N)sc2C1 [Compound 152]
- Kd [1]: < 100 nM
- residence time [2]: 1360 min
- Kd [2]: < 100 nM
- residence time [3]: 2330 min

SMILES: Nc1ccc(-c2ccc(F)cc2)cc1NC(=O)N1CC2(CCCCO2)C1 [Compound 153]
- Kd [1]: 500 to 5000 nM
- residence time [2]: 457 min
- Kd [2]: 100 to 500 nM
- residence time [3]: 1290 min

SMILES: COC(=O)N1CC2CN(C(=O)Nc3cc(-c4ccc(F)cc4)ccc3N)CC2C1 (stereo not drawn) [Compound 154]
- Kd [1]: 100 to 500 nM
- residence time [2]: 1350 min
- Kd [2]: 100 to 500 nM
- residence time [3]: 1540 min

SMILES: CCOC(=O)N1CC2CN(C(=O)Nc3cc(-c4ccc(F)cc4)ccc3N)CC2C1 (stereo not drawn) [Compound 155]
- Kd [1]: 500 to 5000 nM
- residence time [2]: 1630 min
- Kd [2]: 100 to 500 nM
- residence time [3]: 1720 min

SMILES: CC(C)OC(=O)N1CC2CN(C(=O)Nc3cc(-c4ccc(F)cc4)ccc3N)CC2C1 (stereo not drawn) [Compound 156]
- Kd [1]: 100 to 500 nM
- residence time [2]: 1200 min
- Kd [2]: < 100 nM
- residence time [3]: 1800 min

SMILES: CC(C)COC(=O)N1CC2CN(C(=O)Nc3cc(-c4ccc(F)cc4)ccc3N)CC2C1 (stereo not drawn) [Compound 157]
- Kd [1]: 100 to 500 nM
- residence time [2]: 838 min
- Kd [2]: < 100 nM
- residence time [3]: 1360 min

SMILES: Nc1ccc(-c2ccc(F)cc2)cc1NC(=O)N1CC2CN(C(=O)OC3CC3)CC2C1 (stereo not drawn) [Compound 158]
- Kd [1]: 100 to 500 nM
- residence time [2]: 1220 min
- Kd [2]: < 100 nM
- residence time [3]: 2140 min

SMILES: Nc1ccc(-c2ccc(F)cc2)cc1NC(=O)N1CC2CN(C(=O)OC3CCC3)CC2C1 (stereo not drawn) [Compound 159]
- Kd [1]: 100 to 500 nM
- residence time [2]: 1060 min
- Kd [2]: < 100 nM
- residence time [3]: 2640 min

SMILES: CC(C)CC(=O)N1CC2CN(C(=O)Nc3cc(-c4ccc(F)cc4)ccc3N)CC2C1 (stereo not drawn) [Compound 160]
- Kd [1]: 100 to 500 nM
- residence time [2]: 848 min
- Kd [2]: 100 to 500 nM
- residence time [3]: 1730 min

SMILES: CC(C)(C)OC(=O)N1CCC2(CCN(C(=O)Nc3cc(-c4ccc(F)cc4)ccc3N)CC2)C1 [Compound 161]
- Kd [1]: 100 to 500 nM
- residence time [2]: 1170 min
- Kd [2]: < 100 nM
- residence time [3]: 2640 min

SMILES: Nc1ccc(-c2ccc(OC(F)F)cc2)cc1NC(=O)N1Cc2ccncc2C1 [Compound 162]
- Kd [1]: < 100 nM
- residence time [2]: 946 min
- Kd [2]: < 100 nM
- residence time [3]: 1340 min

SMILES: Nc1ccc(-c2ccc(F)cc2)cc1NC(=O)N1CCC2(CC1)CCN(C1COC1)C2 [Compound 164]
- Kd [1]: 100 to 500 nM
- residence time [2]: 1430 min
- Kd [2]: 100 to 500 nM
- residence time [3]: 2210 min

SMILES: Nc1ccc(-c2ccncc2)cc1NC(=O)N1CCC2(CC1)CCN(C1COC1)C2 [Compound 165]
- Kd [1]: 100 to 500 nM
- residence time [2]: 259 min
- Kd [2]: 500 to 5000 nM
- residence time [3]: 1720 min

SMILES: CC(C)(C)OC(=O)N1CCC2(CC1)CN(C(=O)Nc1cc(-c3ccc(F)cc3)ccc1N)C2 [Compound 166]
- Kd [1]: 500 to 5000 nM
- residence time [2]: 84 min
- Kd [2]: 500 to 5000 nM
- residence time [3]: 521 min

SMILES: Nc1ccc(-c2ccc(C(F)(F)F)cn2)cc1NC(=O)N1Cc2ccncc2C1 [Compound 167]
- Kd [1]: 500 to 5000 nM
- residence time [2]: 140 min
- Kd [2]: 500 to 5000 nM
- residence time [3]: 864 min

SMILES: Nc1ccc(-c2ccco2)cc1NC(=O)N1Cc2ccncc2C1 [Compound 168]
- Kd [1]: < 100 nM
- residence time [2]: 1380 min
- Kd [2]: < 100 nM
- residence time [3]: 5570 min

SMILES: Nc1ccc(-c2ccc(F)cc2)cc1NC(=O)N1CC2(CCNCC2)C1 [Compound 169]
- Kd [1]: 500 to 5000 nM
- residence time [2]: 120 min
- Kd [2]: 500 to 5000 nM
- residence time [3]: 716 min

SMILES: Nc1ccc(-c2ccc(F)cc2)cc1NC(=O)N1CC2CCNCC2C1 (stereo not drawn) [Compound 170]
- Kd [1]: 500 to 5000 nM
- residence time [2]: 342 min
- Kd [2]: 500 to 5000 nM
- residence time [3]: 2160 min

SMILES: CC(C)(C)OC(=O)N1CCC2CN(C(=O)Nc3cc(-c4ccc(F)cc4)ccc3N)CC2C1 (stereo not drawn) [Compound 171]
- Kd [1]: 100 to 500 nM
- residence time [2]: 765 min
- Kd [2]: 100 to 500 nM
- residence time [3]: 1610 min

SMILES: Nc1ccc(-c2ccc(F)cc2)cc1NC(=O)N1CCC2(CCOCC2)C1 [Compound 172]
- Kd [1]: 100 to 500 nM
- residence time [2]: 299 min
- Kd [2]: 100 to 500 nM
- residence time [3]: 987 min

SMILES: Nc1ccc(-c2ccc(F)cc2)cc1NC(=O)N1CCC2(CCOC2)CC1 [Compound 173]
- Kd [1]: 100 to 500 nM
- residence time [2]: 1210 min
- Kd [2]: < 100 nM
- residence time [3]: 1250 min

SMILES: Nc1ccc(-c2ccncc2)cc1NC(=O)c1nc2c(s1)CCNC2 [Compound 174]
- Kd [1]: < 100 nM
- residence time [2]: 1350 min
- Kd [2]: < 100 nM
- residence time [3]: 1940 min

SMILES: Nc1ccc(-c2ccc(F)cc2)cc1NC(=O)c1nc2c(s1)CCNC2 [Compound 175]
- Kd [1]: < 100 nM
- residence time [2]: 1170 min
- Kd [2]: < 100 nM
- residence time [3]: 2710 min
